Where two headings read alike, the source gives them in different places.
Experiments:
[1] = target: B. taurus (heart) complex I (Bos taurus, UniProt P03887+P17694+P42026); experiment: biochemical; assay type: biochemical; details: for IC50: B. taurus heart mitochondria, read-out: B. taurus Complex I IC50; for Log IC50 B. taurus complex I: log10 of IC50 in µM, B. taurus mitochondria
Procedure: Six 8–10-week-old C57Bl/6 female mice (Charles River) were freshly dissected, and their livers and hearts collected into separate 1.5 mL microcentrifuge tubes. Organs were flash-frozen in liquid nitrogen and stored at −80 °C prior to use. The heart of a freshly slaughtered adult cow was obtained from a local abattoir (Peel Sausage Inc.), chopped into ~1-inch cubes and collected into 50 mL falcon tubes. Falcon tubes were flash-frozen in a container of dry ice and stored at −80 °C prior to use. Isolation of mitochondria from all mammalian tissue was carried out following the protocol described above. However, due to size, the initial homogenization of tissue was performed by 15 strokes in a dounce homogenizer (mouse heart) or with several 5 s pulses in small Nutribullet blender (cow heart). All mouse protocols for mouse care and dissection were reviewed and approved by the University of Toronto Animal Care Committee, in accordance with the Canadian Council on Animal Care.
(§1) The enzymatic activities of individual ETC complexes (I-IV) were assessed spectrophotometrically in isolated mitochondria using a Varioskan LUX Multimode plate reader (ThermoFisher Scientific). Mitochondrial pellets previously isolated were thawed on ice and resuspended in ice-cold isolation buffer (250 mM sucrose, 10 mM Tris (pH 7.5), 1 mM EDTA). The BCA assay (Walker, 1994) was used to quantify the protein concentration of mitochondria suspensions; solutions were diluted to a concentration of 0.2 mg/mL for use in all assays. For the complex I assay, mitochondria pellets were freeze-thawed on ice three times to increase enzyme accessibility. […] 20 μL mitochondria suspension was then added/mixed with a pipette to initiate the reaction. Immediately following the addition of mitochondria, absorbance was measured (complex I and II: 600 nm; complex III and IV: 550 nm) in 30 s intervals over 15 min. Enzymatic activity was determined in each reaction by plotting absorbance versus time and calculating the slope of the curve during the initial linear phase of the reaction. […] Percent activity of each complex was calculated by dividing the enzyme-specific activity of each well by the enzyme-specific activity of the corresponding solvent controls.
(§2) Chemical solutions were prepared in complex I assay buffer composed of 25 mM KPi buffer (pH 7.5), 3 mg/mL bovine serum albumin (BSA), 80 μM NADH, 60 μM decylubiquinone, 160 μM DCIP, 2 μM antimycin A and 2 mM KCN.
For preliminary screens of hit compounds, compounds were screened at 100 μM; data are the average of at least three biological replicates. The complex I and II activity assays were used for additional dose-response experiments. […] For dose responses of benzimidazole analogs, data represent the average of two biological replicates. For all other dose-responses, data represent the average of at least three biological replicates.

[2] = in vitro; details: human
[3] = system: L1 wild-type C. elegans; details: for Relative Motility: worm motility 3 hours after the removal of KCN (endpoint), relative to DMSO controls, single biological replicate
[4] = system: L1 wild-type C. elegans; experiment: microbe, parasite or virus in culture; details: Caenorhabditis elegans, read-out: C. elegans KCN Survival Assay LC50, estimated from fitted dose-response curves; mean of at least two biological replicates
[5] = target: C. elegans (N2) complex I (NADH:ubiquinone oxidoreductase) (Caenorhabditis elegans, UniProt P24887+Q93873+Q94360); experiment: biochemical; assay type: biochemical; details: for Log IC50 C. elegans complex I: log10 of IC50 in µM, C. elegans mitochondria
Procedure: Mitochondria were isolated from the following free-living nematode strains: C. elegans—N2, CB3474, ECA882, ECA917, ECA1075, ECA1080; C. briggsae—AF16; P. pacificus—PS312; and P. hermaphrodita—B178. With the exception of the P. hermaphrodita strain B178, adult worms of each strain were grown in bulk through liquid culture to obtain mitochondria in sufficient quantities. Due to poor growth in liquid media, mixed stage populations of P. hermaphrodita were washed off and collected from NGM plates seeded with OP50. The isolation of mitochondria from all free-living nematode strains followed the protocol previously outlined in Burns et al.[24]. In brief, a 1 L saturated culture of E. coli HB101 was concentrated 20-fold in 50 mL complete S-medium. ~500,000 L1 worms synchronized from an embryo preparation performed the day prior were added to the S-media/HB101 suspension and grown to adulthood over the course of 3.5 days at 20 °C with shaking at 165 rpm. Following growth, worms were collected in 10 ×15 mL conical tubes and washed 7 times in M9 buffer. Worm suspensions were then combined into a single 15 mL conical tube and diluted to a final volume of 15 mL with M9 buffer. 1 mL aliquots of worm suspension were then distributed to 15 × 1.5 mL screw-cap microcentrifuge tubes and were pelleted at 500 g for 1 min. Excess M9 was aspirated without disturbing the worm pellet. 600 μL ice-cold isolate buffer A (250 mM sucrose, 10 mM Tris (pH 7.5), 1 mM EDTA, 1 mM PMSF (freshly prepared)) and 300 μL cold glass beads were then added to each tube. Tubes were incubated on ice for 10 min, and the worms were then lysed by bead beating (6 x 30 s, with 1 min cooling intervals). Tubes containing worm lysate were centrifuged at 1,000 g for 10 min at 4 °C and the supernatant was transferred to 15 new microcentrifuge tubes on ice. The tubes were centrifuged a second time at 1,000 g for 10 min at 4 °C and the supernatant was once again transferred to 15 new microcentrifuge tubes on ice. These tubes were then centrifuged at 16,000 g for 10 min at 4 °C. The resulting mitochondrial pellet was washed twice by re-suspension in 300 μL of ice-cold isolate buffer B (250 mM sucrose, 10 mM Tris (pH 7.5), 1 mM EDTA). Following the final wash, isolation buffer was aspirated from each tube and the pellets were flash-frozen in ethanol/dry ice and stored at −80 °C until needed.
as §1, §2
For preliminary screens of hit compounds, compounds were screened at 100 μM; data are the average of at least three biological replicates.

[6] = system: ben-1 mutant (ECA882) C. elegans; experiment: microbe, parasite or virus in culture; details: Caenorhabditis elegans
Procedure: Liquid development and viability assays were adapted from a previously established chemical screening protocol (Burns et al.)[24]. In brief, a saturated culture of E. coli HB101 was concentrated 2-fold in liquid NGM and 40 μL of this suspension was distributed to each well of a 96-well flat-bottom culture plate. 0.5 μL chemical solution (or DMSO alone) was added to each well (1% DMSO v/v) using either a multi-channel pipette or a pinning tool (V&P Scientific). L1 worms synchronized from an embryo preparation performed the day prior were diluted to a concentration of ~2 worms/μL in M9 buffer; 10 μL worm suspension was then added to each well. Culture plates were sealed with parafilm and placed in a plastic container lined with wet paper towels to prevent evaporation. Containers were then incubated for 6 days at 20 °C with shaking at 165 rpm. Following incubation, 300 μL M9 was added to each well to decrease the turbidity of the HB101-NGM suspension. Single images of each microplate well were then taken on a Nikon Ti Eclipse inverted microscope (Nikon NIS Elements AR). Images were processed using Python scripts to isolate worm-associated pixels from background. Scores of worm development and viability were determined as the sum of worm-associated pixels in each well. Development/viability scores for each well were divided by the development /viability scores for the corresponding DMSO controls, resulting in a relative viability value for each chemical. At least three biological replicates were performed for each dose-response experiment; relative viability values were averaged across replicates. […]
anthelmintics. a. Chemical structures of four commercial benzimidazole anthelmintics (e.g., albendazole, […]
Dose response of four commercial […]
elegans strains: N2, wild type; ECA882, deletion (ben-1); ECA917, F200Y (ben-1); ECA1075, F167Y (ben-1); ECA1080, E198A (ben-1); CB3474, G104D (ben-1). The colour-coded scale denotes the phenotypic outcome of drug treatment (e.g., motility or viability) relative to DMSO controls; white/pale- […]
death and arrested development. c. […]
benzimidazole anthelmintics (blue) were conducted in C. elegans development and viability assays for wild type (N2) and ben-1 mutant (ECA882) C. elegans (see Supplementary Date File 1).
All data used for generation of dose-response curves is the mean of at least three […]
Supplementary Figure 7 (continued). Davie et al.

[7] = 50 μM compound, hit = relative motility below 0.25 3 hours after removal of KCN
[8] = in vitro complex I dose response on C. elegans mitochondria, average of at least two biological replicates, fit in R (DRC), read-out: IC50 C. elegans complex I
[9] = wild-type (N2) mitochondria, read-out: C. elegans Complex I IC50
[10] = wild-type C. elegans mitochondria, read-out: C. elegans Complex I IC50
[11] = read-out: C. elegans (ben-1) Development & Viability Assay LC50
[12] = read-out: C. elegans ben-1 log10 LC50 (converted)
[13] = HEK293 Cell Viability Assay LC50, HEK293 cells, estimated from fitted dose-response curves, mean of at least two biological replicates
[14] = 50 μM, KCN survival assay, hit = relative motility below 0.25
[15] = wild-type C. elegans mitochondria, estimated from fitted dose-response curves, read-out: C. elegans Complex I IC50

Sequence of B. taurus (heart) complex I (P03887 whole entry): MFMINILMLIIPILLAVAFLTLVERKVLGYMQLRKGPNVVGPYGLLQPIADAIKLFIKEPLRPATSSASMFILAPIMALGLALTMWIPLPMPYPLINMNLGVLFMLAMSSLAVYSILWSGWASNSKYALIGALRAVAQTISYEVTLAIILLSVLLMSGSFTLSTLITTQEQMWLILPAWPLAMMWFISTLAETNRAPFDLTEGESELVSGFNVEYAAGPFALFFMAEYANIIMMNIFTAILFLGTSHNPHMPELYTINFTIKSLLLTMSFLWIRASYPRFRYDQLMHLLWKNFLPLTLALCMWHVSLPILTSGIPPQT
Sequence of B. taurus (heart) complex I (P17694 34-463): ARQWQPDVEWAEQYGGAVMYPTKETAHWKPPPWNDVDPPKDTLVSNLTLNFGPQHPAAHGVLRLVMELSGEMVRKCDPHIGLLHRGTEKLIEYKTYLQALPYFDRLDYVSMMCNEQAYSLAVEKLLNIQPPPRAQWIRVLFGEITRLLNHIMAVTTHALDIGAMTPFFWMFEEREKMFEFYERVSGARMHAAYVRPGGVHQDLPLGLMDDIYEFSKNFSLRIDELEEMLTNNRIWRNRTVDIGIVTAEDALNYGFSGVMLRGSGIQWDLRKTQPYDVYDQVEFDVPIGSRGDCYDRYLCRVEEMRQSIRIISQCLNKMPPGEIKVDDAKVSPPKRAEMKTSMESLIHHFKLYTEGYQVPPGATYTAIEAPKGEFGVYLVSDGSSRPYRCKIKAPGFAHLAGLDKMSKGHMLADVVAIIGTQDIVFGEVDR
Sequence of B. taurus (heart) complex I (P42026 38-216): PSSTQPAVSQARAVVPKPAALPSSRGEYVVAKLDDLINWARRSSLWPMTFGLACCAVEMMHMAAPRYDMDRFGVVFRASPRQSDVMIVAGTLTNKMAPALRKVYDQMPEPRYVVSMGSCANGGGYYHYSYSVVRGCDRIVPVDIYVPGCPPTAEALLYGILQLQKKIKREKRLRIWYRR
Sequence of C. elegans (N2) complex I (NADH:ubiquinone oxidoreductase) (Q94360 17-199): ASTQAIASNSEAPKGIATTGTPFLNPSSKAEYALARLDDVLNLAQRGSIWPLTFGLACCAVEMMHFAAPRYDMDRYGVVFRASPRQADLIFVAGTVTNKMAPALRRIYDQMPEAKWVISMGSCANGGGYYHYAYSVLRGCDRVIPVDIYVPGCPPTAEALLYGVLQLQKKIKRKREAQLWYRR
Sequence of C. elegans (N2) complex I (NADH:ubiquinone oxidoreductase) (P24887 whole entry): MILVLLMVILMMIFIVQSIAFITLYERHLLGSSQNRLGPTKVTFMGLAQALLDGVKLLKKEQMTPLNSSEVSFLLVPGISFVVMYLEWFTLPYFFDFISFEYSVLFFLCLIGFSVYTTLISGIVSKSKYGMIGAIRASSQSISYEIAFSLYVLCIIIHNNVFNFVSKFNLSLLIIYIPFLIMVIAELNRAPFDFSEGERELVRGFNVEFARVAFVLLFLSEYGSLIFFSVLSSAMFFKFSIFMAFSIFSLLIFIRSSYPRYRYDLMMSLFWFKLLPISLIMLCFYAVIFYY
Sequence of C. elegans (N2) complex I (NADH:ubiquinone oxidoreductase) (Q93873 31-482): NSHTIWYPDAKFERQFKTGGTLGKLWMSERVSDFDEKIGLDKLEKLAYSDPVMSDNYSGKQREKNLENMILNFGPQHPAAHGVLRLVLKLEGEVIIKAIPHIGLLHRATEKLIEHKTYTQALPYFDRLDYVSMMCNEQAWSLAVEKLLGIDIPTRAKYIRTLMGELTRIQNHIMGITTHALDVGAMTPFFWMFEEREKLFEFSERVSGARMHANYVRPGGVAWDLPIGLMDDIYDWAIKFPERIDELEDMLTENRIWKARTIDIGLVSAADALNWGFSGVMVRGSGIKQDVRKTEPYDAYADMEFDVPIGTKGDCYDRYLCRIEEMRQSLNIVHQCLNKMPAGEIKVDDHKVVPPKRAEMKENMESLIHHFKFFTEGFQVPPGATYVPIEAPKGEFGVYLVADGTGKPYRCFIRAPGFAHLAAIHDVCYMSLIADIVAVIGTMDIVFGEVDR

SMILES | IC50 [1] [µM] | Log IC50 B. taurus complex I [1] [µM] | CC50 at 2 days [2] [µM] | Screen "Hit" [3, 7] | LC50 [4] [µM] | IC50 [5, 8] [µM] | Log IC50 C. elegans complex I [5] [µM] | IC50 [5, 9] [µM] | IC50 [5, 10] [µM] | LC50 [6, 11] [µM] | LC50 [6, 12] [µM] | CC50 at 2 days [2, 13] [µM] | Screen "Hit" [3, 14] | Relative Motility ([3]; 50 μM) | IC50 [5, 15] [µM] | CC50 at 2 days ([2]; HEK293 Cell Viability Assay LC50, HEK293 cells, estimated from fitted dose-response curves) [µM] | Hit ([3]; active or inactive at 50 μM in C. elegans assay of RQ-dependent metabolism) | LC50 ([6]; read-out: C. elegans ben-1 LC50) [µM] | IC50 ([1]; estimated from fitted dose-response curves) [µM]
Cc1nc2ccccc2n1Cc1ccc(C(C)(C)C)cc1 [Compound 5521938] | 1.18 | 0.07 | 35.3 | Y (hits were identified as compounds that reduced relative motility below 0.25 (75% reduction)) | 11 | 2.57 | 0.41 | 2.57 | 2.57 | 272 | 272 |  |  |  |  |  |  |  | 
COc1ccccc1/C=C/c1nc2ccccc2[nH]1 [Compound 7148894] |  |  |  |  | 9.02 |  |  |  |  | 188 | 188 | < 12.5 | Y (hits were identified as compounds that reduced relative motility below 0.25 (75% reduction)) | 0.170 | > 75 |  |  |  | 
Cn1c(Cc2ccc(Cl)cc2)nc2ccccc21 [Compound 9005666] | 33.3 | 1.52 | > 100 | Y (hits were identified as compounds that reduced relative motility below 0.25 (75% reduction)) | 28.6 | 8.27 | 0.92 | 8.27 | 8.27 | 193 | 193 |  |  |  |  |  |  |  | 
CCn1c(/C=C/c2ccc(F)cc2)nc2ccccc21 [Compound 7147614] |  |  |  |  | 14.4 |  |  |  |  | 77 | 77.1 | 41 | Y (hits were identified as compounds that reduced relative motility below 0.25 (75% reduction)) | 0.130 | > 75 |  |  |  | 
Nc1nc2ccccc2n1CCCOc1ccccc1 [Compound 7915320] | 15.6 | 1.19 |  |  | 23.7 | 6.9 | 0.84 |  | 6.9 | 150 | 150 |  |  |  |  | 60 | non |  | 
c1ccc(-c2noc(CCCCc3nc4ccccc4[nH]3)n2)cc1 [STK633241] | 18.5 | 1.27 |  | Y (hits were identified as compounds that reduced relative motility below 0.25 (75% reduction)) | 19.4 | 20.6 | 1.31 |  | 20.6 | > 1000 | > 500 |  |  |  |  |  |  | > 500 | 
Cc1nc2ccccc2n1Cc1ccc(F)cc1 [Compound 7360886] |  | 0.66 | > 100 | Y (hits were identified as compounds that reduced relative motility below 0.25 (75% reduction)) | 27 | 0.93 | -0.03 | 0.93 |  | 170 | 169 |  |  |  | 0.93 |  |  |  | 4.54
